Measured values published in ChEMBL document CHEMBL1142810, “Discovery of a potent and selective 5-ht5A receptor antagonist by high-throughput chemistry” (Bioorg Med Chem Lett, 2005).
Each block holds one molecule with its values, some of them ahead of it.

Experiments:
[1] = target: 5-hydroxytryptamine receptor 5A (Homo sapiens, UniProt P47898); assay: Binding affinity towards human 5-hydroxytryptamine receptor 5A expressed in CHO cells using the radioligand [3H]LSD; assay type: cell-based
[2] = target: 5-hydroxytryptamine receptor 2B (Homo sapiens, UniProt P41595); assay: Binding affinity towards human 5-hydroxytryptamine receptor 2B expressed in HEK 293 cells using the radioligand [3H]5-HT; assay type: cell-based, HEK293
[3] = target: T1, 5-hydroxytryptamine receptor 2C (Homo sapiens, UniProt P28335); assay: Binding affinity towards human 5-hydroxytryptamine receptor 2C expressed in HEK 293 cells using the radioligand [3H]mesulergine; assay type: cell-based, HEK293
T1 sequence (P28335 whole entry): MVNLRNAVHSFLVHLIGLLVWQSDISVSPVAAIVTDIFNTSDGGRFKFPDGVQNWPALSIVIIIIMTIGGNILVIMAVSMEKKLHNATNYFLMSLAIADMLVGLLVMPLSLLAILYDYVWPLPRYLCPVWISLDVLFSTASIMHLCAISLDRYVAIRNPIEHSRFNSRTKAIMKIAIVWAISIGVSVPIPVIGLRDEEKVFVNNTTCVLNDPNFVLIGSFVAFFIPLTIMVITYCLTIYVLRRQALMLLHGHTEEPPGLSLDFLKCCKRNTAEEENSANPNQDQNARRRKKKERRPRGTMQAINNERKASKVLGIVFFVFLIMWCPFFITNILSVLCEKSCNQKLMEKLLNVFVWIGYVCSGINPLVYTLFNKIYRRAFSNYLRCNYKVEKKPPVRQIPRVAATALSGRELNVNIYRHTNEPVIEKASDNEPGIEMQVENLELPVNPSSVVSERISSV

D(3) dopamine receptor = D(3) dopamine receptor (Homo sapiens, UniProt P35462); assay: Binding affinity towards human dopamine receptor D3 expressed in CHO cells using the radioligand [125I]iodosulpiride; assay type: cell-based
[4] = target: T2, 5-hydroxytryptamine receptor 1A (Homo sapiens, UniProt P08908); assay: Binding affinity towards human 5-hydroxytryptamine receptor 1A expressed in HEK 293 cells using the radioligand [3H]8-OH-DPAT; assay type: cell-based, HEK293
T2 sequence (P08908 whole entry): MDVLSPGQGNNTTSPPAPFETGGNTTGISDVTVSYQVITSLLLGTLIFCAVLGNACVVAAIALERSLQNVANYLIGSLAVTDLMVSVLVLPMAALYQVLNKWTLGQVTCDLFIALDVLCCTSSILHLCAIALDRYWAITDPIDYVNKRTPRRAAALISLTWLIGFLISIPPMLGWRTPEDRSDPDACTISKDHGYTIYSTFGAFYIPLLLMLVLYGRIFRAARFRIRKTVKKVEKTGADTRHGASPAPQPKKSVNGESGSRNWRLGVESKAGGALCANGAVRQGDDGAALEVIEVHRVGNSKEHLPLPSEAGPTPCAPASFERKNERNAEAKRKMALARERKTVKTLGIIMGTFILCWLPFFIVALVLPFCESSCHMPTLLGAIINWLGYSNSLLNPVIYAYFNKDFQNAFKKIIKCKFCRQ

[5] = target: 5-hydroxytryptamine receptor 1B (Homo sapiens, UniProt P28222); assay: Binding affinity towards human 5-hydroxytryptamine receptor 1B expressed in CHO cells using the radioligand [3H]5-HT; assay type: cell-based
[6] = target: T3, 5-hydroxytryptamine receptor 1F (Homo sapiens, UniProt P30939); assay: Binding affinity towards human 5-hydroxytryptamine receptor 1F expressed in HEK 293 cells using the radioligand [3H]5-HT; assay type: cell-based, HEK293
T3 sequence (P30939 whole entry): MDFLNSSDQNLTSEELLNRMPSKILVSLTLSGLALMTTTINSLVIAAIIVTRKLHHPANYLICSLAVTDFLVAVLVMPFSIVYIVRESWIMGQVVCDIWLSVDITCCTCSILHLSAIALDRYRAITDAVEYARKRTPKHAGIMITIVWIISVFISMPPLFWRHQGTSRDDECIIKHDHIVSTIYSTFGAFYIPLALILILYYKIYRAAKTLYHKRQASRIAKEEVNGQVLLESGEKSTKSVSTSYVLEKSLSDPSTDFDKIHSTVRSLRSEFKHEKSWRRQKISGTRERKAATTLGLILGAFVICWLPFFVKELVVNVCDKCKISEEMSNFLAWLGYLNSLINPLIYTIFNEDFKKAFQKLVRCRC

D(4) dopamine receptor = target: T4, D(4) dopamine receptor (Homo sapiens, UniProt P21917); assay: Binding affinity towards human dopamine receptor D4 expressed in CHO cells using the radioligand [125I]iodosulpiride; assay type: cell-based
T4 sequence (P21917 whole entry): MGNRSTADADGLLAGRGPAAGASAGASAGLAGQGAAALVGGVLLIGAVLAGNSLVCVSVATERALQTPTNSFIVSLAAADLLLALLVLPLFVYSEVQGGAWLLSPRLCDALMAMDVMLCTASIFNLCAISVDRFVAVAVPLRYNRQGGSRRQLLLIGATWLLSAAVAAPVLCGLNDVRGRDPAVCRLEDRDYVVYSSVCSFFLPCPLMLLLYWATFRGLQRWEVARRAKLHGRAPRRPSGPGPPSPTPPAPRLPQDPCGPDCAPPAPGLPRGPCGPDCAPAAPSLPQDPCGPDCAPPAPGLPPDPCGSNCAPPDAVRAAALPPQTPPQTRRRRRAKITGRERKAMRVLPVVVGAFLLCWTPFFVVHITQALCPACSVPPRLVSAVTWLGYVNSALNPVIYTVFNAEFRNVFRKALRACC

[7] = target: 5-hydroxytryptamine receptor 2A (Homo sapiens, UniProt P28223); assay: Binding affinity towards human 5-hydroxytryptamine receptor 2A expressed in HEK 293 cells using the radioligand [3H]ketanserin; assay type: cell-based, HEK293
D(2) dopamine receptor = D(2) dopamine receptor (Homo sapiens, UniProt P14416); assay: Binding affinity towards human dopamine receptor D2 expressed in CHO cells using the radioligand [125I]iodosulpiride; assay type: cell-based
[8] = target: 5-hydroxytryptamine receptor 1D (Homo sapiens, UniProt P28221); assay: Binding affinity towards human 5-hydroxytryptamine receptor 1D expressed in CHO cells using the radioligand [3H]5-HT; assay type: cell-based
[9] = target: T5, Alpha-1B adrenergic receptor (Homo sapiens, UniProt P35368); assay: Binding affinity towards human alpha-1B-adrenergic receptor expressed in CHO cells using the radioligand [3H]prazosin; assay type: cell-based
T5 sequence (P35368 whole entry): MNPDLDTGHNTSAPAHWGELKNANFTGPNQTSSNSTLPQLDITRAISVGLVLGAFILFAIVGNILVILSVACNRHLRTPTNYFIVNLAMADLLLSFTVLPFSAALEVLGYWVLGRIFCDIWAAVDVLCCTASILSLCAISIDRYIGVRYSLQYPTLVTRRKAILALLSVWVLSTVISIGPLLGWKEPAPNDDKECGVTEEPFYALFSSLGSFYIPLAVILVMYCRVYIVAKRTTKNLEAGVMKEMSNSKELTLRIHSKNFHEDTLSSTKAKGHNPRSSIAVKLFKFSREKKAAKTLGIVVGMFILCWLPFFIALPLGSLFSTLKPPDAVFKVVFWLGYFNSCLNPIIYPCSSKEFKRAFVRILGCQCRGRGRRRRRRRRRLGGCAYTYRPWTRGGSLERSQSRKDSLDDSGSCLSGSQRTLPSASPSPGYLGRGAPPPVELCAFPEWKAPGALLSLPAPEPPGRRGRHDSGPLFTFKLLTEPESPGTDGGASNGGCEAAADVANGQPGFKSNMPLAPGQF

[10] = target: 5-hydroxytryptamine receptor 1E (Homo sapiens, UniProt P28566); assay: Binding affinity towards human 5-hydroxytryptamine receptor 1E expressed in HEK 293 cells using the radioligand [3H]5-HT; assay type: cell-based, HEK293
[11] = target: 5-hydroxytryptamine receptor 7 (Homo sapiens, UniProt P34969); assay: Binding affinity towards human 5-hydroxytryptamine receptor 7 expressed in HEK 293 cells using the radioligand [3H]5-CT; assay type: cell-based, HEK293
[12] = target: 5-hydroxytryptamine receptor 6 (Homo sapiens, UniProt P50406); assay: Binding affinity towards human 5-hydroxytryptamine receptor 6 expressed in HeLa cells using the radioligand [3H]LSD; assay type: cell-based
[13] = Half life in guinea pig at a dose of 3 mg/kg upon oral administration; assay type: ADME, organism-based, Cavia porcellus; set-up: dose 3 mg/kg, route oral; conditions: in vivo
[14] = Half life in guinea pig at a dose of 1 mg/kg upon intravenous administration; assay type: ADME, organism-based, Cavia porcellus; set-up: dose 1 mg/kg, route intravenous; conditions: in vivo
[15] = Peak blood concentration in guinea pig at a dose of 3 mg/kg upon subcutaneous administration; assay type: ADME, organism-based, Cavia porcellus; set-up: dose 3 mg/kg, route subcutaneous; conditions: sc
[16] = Bioavailability in guinea pig at a dose of 3 mg/kg upon subcutaneous administration; assay type: ADME, organism-based, Cavia porcellus; conditions: in vivo, sc
[17] = target: Sodium-dependent serotonin transporter (Homo sapiens, UniProt P31645); assay: Binding affinity towards human serotonin transporter expressed in LLCPK cells using the radioligand [3H]citalopram; assay type: cell-based
[18] = Peak blood concentration in guinea pig at a dose of 3 mg/kg upon oral administration; assay type: ADME, organism-based, Cavia porcellus; set-up: dose 3 mg/kg, route oral
[19] = Blood clearance in guinea pig at a dose of 1 mg/kg upon intravenous administration; assay type: ADME, organism-based, Cavia porcellus; set-up: dose 1 mg/kg, route intravenous
[20] = Volume of distribution in guinea pig at a dose of 1 mg/kg upon intravenous administration; assay type: ADME, organism-based, Cavia porcellus; set-up: dose 1 mg/kg, route intravenous; conditions: in vivo, read-out: Vdss
[21] = Half life in guinea pig at a dose of 3 mg/kg upon subcutaneous administration; assay type: ADME, organism-based, Cavia porcellus; set-up: dose 3 mg/kg, route subcutaneous; conditions: in vivo, sc
[22] = Bioavailability in guinea pig at a dose of 3 mg/kg upon oral administration; assay type: ADME, organism-based, Cavia porcellus; conditions: in vivo

Chain of 5-hydroxytryptamine receptor 5A (P47898 whole entry): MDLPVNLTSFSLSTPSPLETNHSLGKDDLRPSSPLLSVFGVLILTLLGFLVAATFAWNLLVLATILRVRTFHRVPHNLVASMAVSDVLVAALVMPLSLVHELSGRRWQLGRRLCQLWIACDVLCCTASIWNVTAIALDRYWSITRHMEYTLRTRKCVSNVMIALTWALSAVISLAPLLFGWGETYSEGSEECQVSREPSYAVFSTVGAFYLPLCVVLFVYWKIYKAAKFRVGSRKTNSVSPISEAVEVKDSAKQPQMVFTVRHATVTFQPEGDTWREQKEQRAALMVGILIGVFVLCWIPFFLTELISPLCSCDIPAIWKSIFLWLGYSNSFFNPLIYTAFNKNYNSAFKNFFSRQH
Chain of 5-hydroxytryptamine receptor 6 (P50406 whole entry): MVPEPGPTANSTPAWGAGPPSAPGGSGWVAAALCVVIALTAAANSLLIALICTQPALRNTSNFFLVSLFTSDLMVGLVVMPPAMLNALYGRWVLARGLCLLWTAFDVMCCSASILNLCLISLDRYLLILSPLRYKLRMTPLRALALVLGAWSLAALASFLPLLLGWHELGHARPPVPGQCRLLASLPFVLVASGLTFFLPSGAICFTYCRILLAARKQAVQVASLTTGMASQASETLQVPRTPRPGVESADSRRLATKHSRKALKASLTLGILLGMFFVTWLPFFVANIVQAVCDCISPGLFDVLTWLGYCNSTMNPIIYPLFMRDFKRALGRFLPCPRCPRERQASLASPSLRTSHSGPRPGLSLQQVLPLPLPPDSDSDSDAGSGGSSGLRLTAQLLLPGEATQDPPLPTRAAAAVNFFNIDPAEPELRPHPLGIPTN
Chain of 5-hydroxytryptamine receptor 1E (P28566 whole entry): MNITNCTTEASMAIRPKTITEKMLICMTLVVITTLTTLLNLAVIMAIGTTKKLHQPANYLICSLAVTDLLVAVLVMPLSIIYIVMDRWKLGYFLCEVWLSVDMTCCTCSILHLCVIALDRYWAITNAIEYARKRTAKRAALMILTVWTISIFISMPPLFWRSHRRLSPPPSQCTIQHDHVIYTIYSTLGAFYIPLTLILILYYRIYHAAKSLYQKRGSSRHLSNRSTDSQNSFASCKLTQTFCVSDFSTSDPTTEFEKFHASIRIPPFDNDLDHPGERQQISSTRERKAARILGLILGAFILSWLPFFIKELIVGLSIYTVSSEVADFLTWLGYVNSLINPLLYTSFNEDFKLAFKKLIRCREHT
Chain of 5-hydroxytryptamine receptor 2B (P41595 whole entry): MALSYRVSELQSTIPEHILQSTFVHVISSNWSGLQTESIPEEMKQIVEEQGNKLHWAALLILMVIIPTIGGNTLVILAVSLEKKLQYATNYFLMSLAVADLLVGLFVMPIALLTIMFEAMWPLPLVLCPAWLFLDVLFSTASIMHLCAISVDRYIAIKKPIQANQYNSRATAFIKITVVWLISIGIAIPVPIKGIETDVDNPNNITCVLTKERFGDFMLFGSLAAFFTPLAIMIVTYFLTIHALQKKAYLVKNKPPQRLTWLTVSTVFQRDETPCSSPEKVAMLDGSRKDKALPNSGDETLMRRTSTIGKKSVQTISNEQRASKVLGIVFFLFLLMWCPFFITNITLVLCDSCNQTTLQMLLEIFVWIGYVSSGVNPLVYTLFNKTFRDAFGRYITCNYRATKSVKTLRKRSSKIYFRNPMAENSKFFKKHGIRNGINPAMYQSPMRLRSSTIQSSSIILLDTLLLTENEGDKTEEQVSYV
Chain of D(2) dopamine receptor (P14416 whole entry): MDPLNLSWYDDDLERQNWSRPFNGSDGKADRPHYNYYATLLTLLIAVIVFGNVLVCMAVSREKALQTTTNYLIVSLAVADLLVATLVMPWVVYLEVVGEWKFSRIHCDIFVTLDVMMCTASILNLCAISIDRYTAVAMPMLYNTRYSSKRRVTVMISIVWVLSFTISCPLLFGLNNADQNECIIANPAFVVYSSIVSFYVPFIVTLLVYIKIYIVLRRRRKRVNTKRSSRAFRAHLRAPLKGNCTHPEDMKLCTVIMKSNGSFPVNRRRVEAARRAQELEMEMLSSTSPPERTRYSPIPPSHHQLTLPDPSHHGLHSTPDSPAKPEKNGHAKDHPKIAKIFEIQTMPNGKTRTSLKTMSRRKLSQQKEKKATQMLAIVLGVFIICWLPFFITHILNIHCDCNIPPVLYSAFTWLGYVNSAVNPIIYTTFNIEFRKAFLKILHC
Chain of 5-hydroxytryptamine receptor 1D (P28221 whole entry): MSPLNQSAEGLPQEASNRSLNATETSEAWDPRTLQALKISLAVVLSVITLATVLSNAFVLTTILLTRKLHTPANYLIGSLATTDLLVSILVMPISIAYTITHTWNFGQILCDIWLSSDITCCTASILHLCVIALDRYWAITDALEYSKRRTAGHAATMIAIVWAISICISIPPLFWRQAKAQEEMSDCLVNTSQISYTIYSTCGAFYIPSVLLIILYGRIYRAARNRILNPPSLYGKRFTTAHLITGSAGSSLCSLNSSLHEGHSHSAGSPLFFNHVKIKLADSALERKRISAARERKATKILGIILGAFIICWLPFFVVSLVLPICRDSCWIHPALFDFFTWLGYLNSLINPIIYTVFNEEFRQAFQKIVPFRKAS
Chain of 5-hydroxytryptamine receptor 2A (P28223 whole entry): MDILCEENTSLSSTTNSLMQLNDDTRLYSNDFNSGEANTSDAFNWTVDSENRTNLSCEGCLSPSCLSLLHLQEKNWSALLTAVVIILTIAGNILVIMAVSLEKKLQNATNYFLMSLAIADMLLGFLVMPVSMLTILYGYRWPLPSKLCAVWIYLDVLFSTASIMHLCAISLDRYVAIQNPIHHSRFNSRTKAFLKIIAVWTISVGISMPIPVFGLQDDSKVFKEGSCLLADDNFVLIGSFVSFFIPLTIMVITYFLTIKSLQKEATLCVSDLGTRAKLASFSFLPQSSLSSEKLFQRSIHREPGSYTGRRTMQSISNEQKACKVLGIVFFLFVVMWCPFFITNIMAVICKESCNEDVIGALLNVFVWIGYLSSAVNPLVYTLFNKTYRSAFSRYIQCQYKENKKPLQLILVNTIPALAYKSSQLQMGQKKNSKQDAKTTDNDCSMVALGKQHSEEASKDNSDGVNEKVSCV
Chain of 5-hydroxytryptamine receptor 1B (P28222 whole entry): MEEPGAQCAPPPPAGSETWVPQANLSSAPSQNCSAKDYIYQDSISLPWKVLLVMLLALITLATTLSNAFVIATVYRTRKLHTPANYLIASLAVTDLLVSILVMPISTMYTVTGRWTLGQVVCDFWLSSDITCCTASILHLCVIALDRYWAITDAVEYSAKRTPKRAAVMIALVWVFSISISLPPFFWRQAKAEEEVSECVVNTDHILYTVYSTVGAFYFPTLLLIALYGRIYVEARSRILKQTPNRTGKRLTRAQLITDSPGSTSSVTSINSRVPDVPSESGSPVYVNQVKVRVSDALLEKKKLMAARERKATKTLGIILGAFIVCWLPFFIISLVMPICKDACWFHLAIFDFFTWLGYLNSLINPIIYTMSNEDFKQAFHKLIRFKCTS
Chain of D(3) dopamine receptor (P35462 whole entry): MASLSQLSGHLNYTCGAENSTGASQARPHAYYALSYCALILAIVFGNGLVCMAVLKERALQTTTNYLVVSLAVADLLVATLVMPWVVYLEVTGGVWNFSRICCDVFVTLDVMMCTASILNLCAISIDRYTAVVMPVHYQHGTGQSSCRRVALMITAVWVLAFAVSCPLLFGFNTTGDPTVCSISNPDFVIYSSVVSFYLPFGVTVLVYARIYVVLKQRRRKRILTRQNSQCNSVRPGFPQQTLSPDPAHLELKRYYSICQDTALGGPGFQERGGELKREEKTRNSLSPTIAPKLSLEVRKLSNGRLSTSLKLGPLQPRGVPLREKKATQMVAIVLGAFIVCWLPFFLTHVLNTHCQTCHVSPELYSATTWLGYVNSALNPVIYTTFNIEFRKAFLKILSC
Chain of 5-hydroxytryptamine receptor 7 (P34969 whole entry): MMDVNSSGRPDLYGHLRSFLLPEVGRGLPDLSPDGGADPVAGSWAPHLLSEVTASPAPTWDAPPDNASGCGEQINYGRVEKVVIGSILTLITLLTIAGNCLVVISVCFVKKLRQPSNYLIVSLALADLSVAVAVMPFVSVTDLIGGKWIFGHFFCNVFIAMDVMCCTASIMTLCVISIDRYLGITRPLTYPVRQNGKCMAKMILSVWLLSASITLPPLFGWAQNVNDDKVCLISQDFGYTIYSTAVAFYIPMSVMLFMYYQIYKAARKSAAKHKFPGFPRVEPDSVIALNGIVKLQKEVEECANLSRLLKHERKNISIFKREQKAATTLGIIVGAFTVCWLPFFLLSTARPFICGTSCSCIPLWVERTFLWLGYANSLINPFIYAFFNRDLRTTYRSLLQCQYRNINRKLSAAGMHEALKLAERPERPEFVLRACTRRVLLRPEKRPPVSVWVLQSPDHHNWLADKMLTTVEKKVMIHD
Chain of Sodium-dependent serotonin transporter (P31645 whole entry): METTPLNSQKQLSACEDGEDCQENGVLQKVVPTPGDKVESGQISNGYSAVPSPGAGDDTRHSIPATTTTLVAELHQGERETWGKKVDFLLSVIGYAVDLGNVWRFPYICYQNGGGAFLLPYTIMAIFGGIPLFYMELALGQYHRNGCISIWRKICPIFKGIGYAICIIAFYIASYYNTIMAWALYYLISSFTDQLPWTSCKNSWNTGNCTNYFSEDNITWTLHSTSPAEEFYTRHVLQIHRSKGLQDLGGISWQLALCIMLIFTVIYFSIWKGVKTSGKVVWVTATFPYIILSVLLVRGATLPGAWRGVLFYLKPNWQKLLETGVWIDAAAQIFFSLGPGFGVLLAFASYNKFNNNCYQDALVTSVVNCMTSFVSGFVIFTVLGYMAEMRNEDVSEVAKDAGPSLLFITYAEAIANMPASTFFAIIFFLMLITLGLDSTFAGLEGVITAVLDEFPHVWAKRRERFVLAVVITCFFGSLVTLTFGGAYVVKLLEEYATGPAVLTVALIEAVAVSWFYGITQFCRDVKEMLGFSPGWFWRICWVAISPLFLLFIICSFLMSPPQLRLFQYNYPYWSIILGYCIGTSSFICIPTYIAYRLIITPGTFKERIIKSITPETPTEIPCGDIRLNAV

Structure (SMILES): CN(C)CCN(Cc1ccc(-c2ccc(CNCCc3ccccc3)cc2)nc1)C(=O)CCC1CCCC1
Ki [1]: 31.6 nM

Structure (SMILES): CN(C)CCN(Cc1ccc(-c2ccc(CNCCc3ccccc3)cc2)nc1)C(=O)/C=C/c1ccccc1
Ki [1]: 25.1 nM

Structure (SMILES): COCCNCc1ccc(-c2ccc(CN(Cc3cccnc3)C(=O)/C=C/c3ccccc3)cc2)cc1
Ki [1]: 6310 nM

Structure (SMILES): CN(C)CCN(Cc1ccc(-c2ccc(CNCCc3ccccn3)cc2)cc1)C(=O)CCC1CCCC1
Ki [1]: 31.6 nM

Structure (SMILES): O=C(/C=C/c1ccccc1)N(Cc1ccc(-c2ccc(CNCCc3ccccc3)cc2)cc1)Cc1cccnc1
Ki [2]: 2000 nM
Ki [3]: 1000 nM
Ki (D(3) dopamine receptor): 1580 nM
Ki [1]: 50.1 nM
Ki [4]: 1000 nM
Ki [5]: 631 nM
Ki [6]: > 1 µM
Ki (D(4) dopamine receptor): 1580 nM
Ki [7]: 794 nM
Ki (D(2) dopamine receptor): 1260 nM
Ki [8]: 1260 nM
Ki [9]: 316 nM
Ki [10]: > 10 µM
Ki [11]: 1260 nM
Ki [12]: > 2 µM

Structure (SMILES): c1ccc(CCNCc2ccc(-c3cccc(CNC4CCN(Cc5ccccc5)CC4)c3)cc2)cc1
Ki [1]: 200 nM

Further lines, results first:

Ki [1]: 251 nM
Structure (SMILES): CN(C)CCN(Cc1ccc(-c2ccc(CNC3Cc4ccccc4C3)cc2)cc1)C(=O)CCC1CCCC1

Ki [1]: 25.1 nM
Structure (SMILES): O=C(CCC1CCCC1)N(Cc1ccc(-c2ccc(CNCCc3ccccc3)cc2)cc1)CC1CCCCN1 (centres undefined)

Ki [1]: 1000 nM
Structure (SMILES): O=C(/C=C/c1ccccc1)N(Cc1ccc(-c2ccc(CNCc3ccc4c(c3)OCO4)cc2)cc1)Cc1cccnc1

Ki [1]: 3160 nM
Structure (SMILES): CN(C)CCN(Cc1ccc(-c2ccc(CN)cc2)cc1)C(=O)CCC1CCCC1

Ki [2]: 1000 nM
Ki [3]: 398 nM
Ki (D(3) dopamine receptor): 631 nM
Ki [1]: 6.31 nM
Ki [4]: 501 nM
Ki [5]: 316 nM
Ki [6]: > 10 µM
Ki (D(4) dopamine receptor): 794 nM
Ki [7]: 794 nM
Ki (D(2) dopamine receptor): 1260 nM
Ki [8]: 398 nM
Ki [9]: 316 nM
Ki [10]: > 10 µM
Ki [11]: 3980 nM
Ki [12]: 3.98 µM
Structure (SMILES): CN(C)CCN(Cc1ccc(-c2ccc(CNCCc3ccccc3)cc2)cc1)C(=O)CCC1CCCC1

half-life [13]: 234 min
half-life [14]: 210 min
Cmax [15]: 388 ng/mL
bioavailability [16]: 63%
Ki [17]: 25.1 nM
Cmax [18]: 20 ng/mL
clearance [19]: 22 mL/min/kg
Vd [20]: 6.1 L/kg
half-life [21]: 132 min
bioavailability [22]: 4%
Structure (SMILES): CN(C)CCN(Cc1ccc(-c2ccc(CNCCc3ccccc3)cc2)cc1)C(=O)CCC1CCCC1.Cl.Cl
